Literature values as cited in patent US20100145053A1, “MODIFIED RELEASE CLOPIDOGREL FORMULATION” (CADILA HEALTHCARE LIMITED, priority 2006, published 2010).
Where two headings read alike, the source gives them in different places.

Columns and labels:
[1] = in vivo
[2] = tested on: platelet aggregation in response to ADP; settings: 300-mg loading dose followed by 75 mg daily
[3] = tested on: ADP-induced platelet aggregation; settings: in vivo
[4] = tested on: platelet aggregation to ADP; settings: 4 hours after 600-mg load

| Structure (SMILES) | Time of peak concentration of Clopidogrel and its active metabolite post dosing [1] | Patients with Clopidogrel resistance (<10% reduction in aggregation in response to 5 μmol/L ADP) ([2]; at 2 hours) | Patients with Clopidogrel resistance (<10% reduction in aggregation in response to 5 μmol/L ADP) ([2]; at 24 hours) | Patients with Clopidogrel resistance (<10% reduction in aggregation in response to 5 μmol/L ADP) ([2]; at 5 days) | Patients with Clopidogrel resistance (<10% reduction in aggregation in response to 5 μmol/L ADP) ([2]; at 30 days) | Inhibition of phosphodiesterase activity (phosphodiesterase) | Time for platelet aggregation and bleeding time to return to baseline after treatment is discontinued [3] | Share of Clopidogrel available to undergo hepatic conversion to the active metabolite [1] | Share of Clopidogrel inactivated by esterases in the blood after absorption [1] | Nonresponders (<10% reduction in platelet aggregation) ([4]; 5 μmol/L ADP) | Semiresponders (10% to 29% reduction in platelet aggregation) ([4]; 5 μmol/L ADP) | Nonresponders (<10% reduction in platelet aggregation) ([4]; 20 μmol/ADP) | Semiresponders (10% to 29% reduction in platelet aggregation) ([4]; 20 μmol/ADP) |
| --- | --- | --- | --- | --- | --- | --- | --- | --- | --- | --- | --- | --- | --- |
| COC(=O)[C@H](c1ccccc1Cl)N1CCc2sccc2C1 [Clopidogrel bisulfate] | 1 to 3 h | – | – | – | – | – | – | – | – | – | – | – | – |
| COC(=O)[C@H](c1ccccc1Cl)N1CCc2sccc2C1 [Clopidogrel, Methyl (+)-(S)-alpha-(o-chlorophenyl)-6,7-dihydrothieno(3,2-c)pyridine-5(4H)-acetate] | – | 63 % of patients | 31 % of patients | 31 % of patients | 15 % of patients | does not inhibit | about 5 days | 15% | 85% | 5% | 9% | 11% | 26% |
